SMILES strings stand for the structures. Counter-ions that a name gives are not always drawn.

The target of experiment [1] is Angiotensin I Converting Enzyme (ACE) (Homo sapiens, UniProt P12821). In words: Inhibition of Angiotensin I Converting Enzyme (ACE), HHL substrate, hippuric acid colorimetry (modified Cushman method). In kind it is biochemical. Particulars: 37°C for one hour, pH 8.3, read-out: Inhibitory Activity on ACE (%); for inhibition at 1 µM: Concentration 1 μM; for inhibition at 10 µM: Concentration 10 μM. As to the method:
Inhibitions of Angiotensin I Converting Enzyme (ACE) by the Compounds of this Invention. The experiment was conducted in accordance with a modification of the method described by Cushman et al. [Biochemical Pharmacology, Vol. 20, 1637 (1971)]. That is, using hippuryl-L-histidyl-L-leucine (HHL) as the substrate, the ACE inhibitory activity was determined in terms of percent inhibition of the amount of hippuric acid produced by ACE when the present compound was added. A solution of the compound of the present invention dissolved in a 0.02 to 0.5% dimethyl sulfoxide-1 00 mM potassium phosphate buffer solution (pH 8.3, containing 300 mM sodium chloride) was added to 100 µl of ACE (protein concentration, 20 mg/ml) and 100 µl of -1.25 mM HHL. In this experiment, a potassium phosphate buffer solution containing dimethyl sulfoxide at a concentration equal to that of the test solution was used as a control. After incubating the solution at 37°C for one hour, 150 µl of 1 N hydrochloric acid was added to the solution to terminate the reaction. After 1 ml of ethyl acetate was added, the solution was centrifuged at 3000 r.p.m. for 10 minutes. A 0.5 ml aliquot was separated from the ethyl acetate layer and dried at a temperature below 50°C under nitrogen gas streams. The residue was mixed with 5 ml of 1 M aqueous sodium chloride and the mixture was subjected to colorimetry at a wavelength of 228 nm.

The test system of experiment [2] is Hypertensive Reaction by Angiotensin I. In words: Effect against hypertensive activity of angiotensin I in rats after oral administration. In kind it is in vivo, Male rats (Sprague-Dawley). Particulars: 13.8 µM/kg orally, angiotensin I 300 ng/kg i.v., corrected by angiotensin II reaction; for Percent Inhibition (%) against Hypertensive Reaction by Angiotensin I After 20 min.: 20 min after administration; for Percent Inhibition (%) against Hypertensive Reaction by Angiotensin I After 60 min.: 60 min after administration; for Percent Inhibition (%) against Hypertensive Reaction by Angiotensin I After 120 min.: 120 min after administration. How it is done:
Effect of Present Compounds against Hypertensive Activity of Angiotensin I. Male rats (Sprague-Dawley) weighing 250 g to 350 g which were fed under free access to drinking water and feeds were used as experimental animals. The rats were anesthetized with intraperitoneal administration of pentobarbital sodium (50 mg/kg) on the day before the test day and a polyethylene tube was inserted into each of the femoral artery for measurement of blood pressure and the femoral vein for injection of angiotensin I and II, and then the tubes were fixed. […] Then, 13.8 µM/kg of the compound of this invention was administered orally as an aqueous solution or an aqueous gum arabic suspension, and 20, 60 and 120 minutes after the administration, angiotensin I and II were injected repeatedly to trace hypertensive reactions. In calculating the percent inhibition to the hypertensive activity of angiotensin I, the percent inhibitory value was corrected based on the variation with time in the hypertensive reaction by angiotensin II.

Angiotensin I Converting Enzyme (ACE), sequence (P12821 30-1306, species assumed): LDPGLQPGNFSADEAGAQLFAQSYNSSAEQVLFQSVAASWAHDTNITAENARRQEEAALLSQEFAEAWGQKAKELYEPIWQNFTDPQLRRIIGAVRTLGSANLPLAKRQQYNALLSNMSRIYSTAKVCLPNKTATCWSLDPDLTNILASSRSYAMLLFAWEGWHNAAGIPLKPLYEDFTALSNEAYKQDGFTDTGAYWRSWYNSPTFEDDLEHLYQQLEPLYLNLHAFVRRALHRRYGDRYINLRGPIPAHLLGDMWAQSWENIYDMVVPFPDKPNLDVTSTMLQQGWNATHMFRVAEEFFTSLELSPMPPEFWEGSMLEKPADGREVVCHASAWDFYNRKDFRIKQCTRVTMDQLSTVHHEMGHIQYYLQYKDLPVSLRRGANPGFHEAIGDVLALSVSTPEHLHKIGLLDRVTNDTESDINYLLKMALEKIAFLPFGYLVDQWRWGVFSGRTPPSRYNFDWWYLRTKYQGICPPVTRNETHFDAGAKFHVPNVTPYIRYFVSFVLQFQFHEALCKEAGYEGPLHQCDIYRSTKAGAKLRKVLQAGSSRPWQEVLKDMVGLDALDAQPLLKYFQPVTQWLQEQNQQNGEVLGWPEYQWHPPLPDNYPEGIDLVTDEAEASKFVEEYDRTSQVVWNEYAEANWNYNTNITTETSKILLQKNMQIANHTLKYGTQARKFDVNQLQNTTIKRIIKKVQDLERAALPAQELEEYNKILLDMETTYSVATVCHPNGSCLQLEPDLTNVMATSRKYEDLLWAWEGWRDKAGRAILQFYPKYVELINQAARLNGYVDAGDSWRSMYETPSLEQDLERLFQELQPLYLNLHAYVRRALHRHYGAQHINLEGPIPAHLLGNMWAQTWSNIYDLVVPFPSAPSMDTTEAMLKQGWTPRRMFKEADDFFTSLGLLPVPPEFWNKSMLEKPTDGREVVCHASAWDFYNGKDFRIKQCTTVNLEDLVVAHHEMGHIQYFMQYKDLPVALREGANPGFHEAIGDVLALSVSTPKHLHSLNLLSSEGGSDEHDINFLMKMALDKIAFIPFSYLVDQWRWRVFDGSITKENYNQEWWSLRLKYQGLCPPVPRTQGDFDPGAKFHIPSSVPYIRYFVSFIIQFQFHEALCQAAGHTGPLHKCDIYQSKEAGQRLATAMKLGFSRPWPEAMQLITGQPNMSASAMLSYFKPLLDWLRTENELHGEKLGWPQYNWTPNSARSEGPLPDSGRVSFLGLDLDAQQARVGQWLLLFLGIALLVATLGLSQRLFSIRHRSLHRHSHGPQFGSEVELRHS

`CCOC(=O)C(CCc1ccccc1)N[C@@H](C)C(=O)N(CC(=O)O)C1CCCC1.Cl` (stereo partly drawn) [Example 1, N-(1-ethoxycarbonyl-3-phenylpropyl)-L-alanyl-N-cyclopentylglycine hydrochloride]: in experiment [1], the inhibition at 1 µM amounted to 84% and the inhibition at 10 µM came out at 96%. Besides, in experiment [2], the “Percent Inhibition (%) against Hypertensive Reaction by Angiotensin I After 20 min.” value was 92%, the “Percent Inhibition (%) against Hypertensive Reaction by Angiotensin I After 60 min.” value amounted to 82% and the “Percent Inhibition (%) against Hypertensive Reaction by Angiotensin I After 120 min.” value worked out at 82%.
Take `CCOC(=O)C(CCc1ccccc1)N[C@@H](C)C(=O)N(CC(=O)O)C1C2CC3CC(C2)CC1C3` (stereo partly drawn) [Example 19, N-(1-ethoxycarbonyl-3-phenylpropyl)-L-alanyl-N-(2-adamantyl)glycine hydrobromide]: in experiment [1], the inhibition at 1 µM amounted to 73% and the inhibition at 10 µM was 93%.
Regarding `CCCCOC(=O)C(CCc1ccccc1)N[C@@H](C)C(=O)N(CC(=O)O)C1CCCCCC1` (stereo partly drawn) [Example 7, N-(1-butoxycarbonyl-3-phenylpropyl)-L-alanyl-N-cycloheptylglycine hydrochloride], in experiment [1], the inhibition at 1 µM turned out to be 88% and the inhibition at 10 µM came out at 98%.
On to `C[C@H](NC(CCc1ccccc1)C(=O)O)C(=O)N(CC(=O)O)C1CCCC1` (stereo partly drawn) [Example 13, N-(1-carboxy-3-phenylpropyl)-L-alanyl-N-cyclopentylglycine], for which, in experiment [1], the inhibition at 1 µM came out at 93% and the inhibition at 10 µM turned out to be 100%. Also, in experiment [2], the “Percent Inhibition (%) against Hypertensive Reaction by Angiotensin I After 20 min.” value was found to be 58%, the “Percent Inhibition (%) against Hypertensive Reaction by Angiotensin I After 60 min.” value is 64% and the “Percent Inhibition (%) against Hypertensive Reaction by Angiotensin I After 120 min.” value was 62%.
`CCOC(=O)C(CCc1ccccc1)NC(C)C(=O)N(CC(=O)O)C1CC2CCC1C2` [Example 17, N-[1-(2)-ethoxycarbonyl-3-phenylpropyl]-L-alanyl-N-(2-exonorbornyl)glycine hydrobromide]: in experiment [1], the inhibition at 1 µM was determined as 78% and the inhibition at 10 µM is 99%.
In the case of `CCOC(=O)C(CCc1ccccc1)N[C@@H](C)C(=O)N(CC(=O)O)C1CCCCC1.Cl` (stereo partly drawn) [Example 2, N-(1-ethoxycarbonyl-3-phenylpropyl)-L-alanyl-N-cyclohexylglycine hydrochloride], in experiment [1], the inhibition at 1 µM was 64% and the inhibition at 10 µM turned out to be 90%. In experiment [2], the “Percent Inhibition (%) against Hypertensive Reaction by Angiotensin I After 20 min.” value was found to be 82%, the “Percent Inhibition (%) against Hypertensive Reaction by Angiotensin I After 60 min.” value is 82% and the “Percent Inhibition (%) against Hypertensive Reaction by Angiotensin I After 120 min.” value came out at 77%.
`CCCCOC(=O)[C@H](CCc1ccccc1)N[C@@H](C)C(=O)N(CC(=O)O)C1CCCC1.Cl` [Example 12, N-[1-(S)-butoxycarbonyl-3-phenylpropyl]-L-alanyl-N-cyclopentylglycine hydrochloride]: in experiment [2], the “Percent Inhibition (%) against Hypertensive Reaction by Angiotensin I After 20 min.” value is 95%, the “Percent Inhibition (%) against Hypertensive Reaction by Angiotensin I After 60 min.” value stood at 85% and the “Percent Inhibition (%) against Hypertensive Reaction by Angiotensin I After 120 min.” value was 76%.

For the origin of these results see EP0057998B1, “Alicyclic compounds, their production and use” (Takeda Chemical Industries, Ltd., priority 1981, dated 1982).
